Reference: PubChem BioAssay (NCI)
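All cell lines were grown in 96-well plates and treated with compound for 48 hours. At the GI50, growth is halved. TGI: total growth inhibition.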

Experiments:
Assay in all cases: NCI tumour cell line growth inhibition, 48 h
786-0 renal = system: 786-0 renal
A498 renal = system: A498 renal
A549 NSCLC = system: A549 NSCLC
ACHN renal = system: ACHN renal
BT-549 breast = system: BT-549 breast
CAKI-1 renal = system: CAKI-1 renal
CCRF-CEM leukemia = system: CCRF-CEM leukemia
COLO 205 colon = system: COLO 205 colon
DU-145 prostate = system: DU-145 prostate
EKVX NSCLC = system: EKVX NSCLC
HCC-2998 colon = system: HCC-2998 colon
HCT-116 colon = system: HCT-116 colon
HCT-15 colon = system: HCT-15 colon
HL-60(TB) leukemia = system: HL-60(TB) leukemia
HOP-62 NSCLC = system: HOP-62 NSCLC
HOP-92 NSCLC = system: HOP-92 NSCLC
HS 578T breast = system: HS 578T breast
HT29 colon = system: HT29 colon
IGROV1 ovarian = system: IGROV1 ovarian
K-562 leukemia = system: K-562 leukemia
KM12 colon = system: KM12 colon
LOX IMVI melanoma = system: LOX IMVI melanoma
M14 melanoma = system: M14 melanoma
MALME-3M melanoma = system: MALME-3M melanoma
MCF7 breast = system: MCF7 breast
MDA-MB-231 breast = system: MDA-MB-231 breast
MDA-MB-435 = system: MDA-MB-435
MOLT-4 leukemia = system: MOLT-4 leukemia
NCI-H226 lung = system: NCI-H226 lung
NCI-H23 lung = system: NCI-H23 lung
NCI-H460 lung = system: NCI-H460 lung
NCI-H522 lung = system: NCI-H522 lung
NCI/ADR-RES ovarian = system: NCI/ADR-RES ovarian
OVCAR-3 ovarian = system: OVCAR-3 ovarian
OVCAR-4 ovarian = system: OVCAR-4 ovarian
OVCAR-5 ovarian = system: OVCAR-5 ovarian
OVCAR-8 ovarian = system: OVCAR-8 ovarian
PC-3 prostate = system: PC-3 prostate
RPMI-8226 leukemia = system: RPMI-8226 leukemia
RXF 393 renal = system: RXF 393 renal
SF-268 CNS = system: SF-268 CNS
SF-295 CNS = system: SF-295 CNS
SF-539 CNS = system: SF-539 CNS
SK-MEL-2 melanoma = system: SK-MEL-2 melanoma
SK-MEL-28 melanoma = system: SK-MEL-28 melanoma
SK-MEL-5 melanoma = system: SK-MEL-5 melanoma
SK-OV-3 ovarian = system: SK-OV-3 ovarian
SN12C renal = system: SN12C renal
SNB-19 CNS = system: SNB-19 CNS
SNB-75 CNS = system: SNB-75 CNS
SR leukemia = system: SR leukemia
SW-620 colon = system: SW-620 colon
T-47D breast = system: T-47D breast
TK-10 renal = system: TK-10 renal
U251 CNS = system: U251 CNS
UACC-257 melanoma = system: UACC-257 melanoma
UACC-62 melanoma = system: UACC-62 melanoma
UO-31 renal = system: UO-31 renal

O=C1c2ccccc2-c2c1c1ccccc1c(=O)n2CCCN1CCN(CCCn2c3c(c4ccccc4c2=O)C(=O)c2ccccc2-3)CC1
GI50 (786-0 renal): 2.22 µM | TGI (786-0 renal): > 32 µM | GI50 (A498 renal): > 55.3 µM | TGI (A498 renal): > 100 µM | GI50 (A549 NSCLC): > 100 µM | TGI (A549 NSCLC): > 100 µM | GI50 (ACHN renal): 22.4 µM | TGI (ACHN renal): > 100 µM | GI50 (BT-549 breast): > 75.2 µM | TGI (BT-549 breast): > 100 µM | GI50 (CAKI-1 renal): > 100 µM | TGI (CAKI-1 renal): > 100 µM | GI50 (CCRF-CEM leukemia): 13.8 µM | TGI (CCRF-CEM leukemia): > 100 µM | GI50 (COLO 205 colon): > 100 µM | TGI (COLO 205 colon): > 100 µM | GI50 (DU-145 prostate): 23.7 µM | TGI (DU-145 prostate): > 86.4 µM | GI50 (EKVX NSCLC): > 100 µM | TGI (EKVX NSCLC): > 100 µM | GI50 (HCC-2998 colon): > 100 µM | TGI (HCC-2998 colon): > 100 µM | GI50 (HCT-116 colon): 35.3 µM | TGI (HCT-116 colon): > 100 µM | GI50 (HCT-15 colon): > 79.7 µM | TGI (HCT-15 colon): > 100 µM | GI50 (HL-60(TB) leukemia): 79.7 µM | TGI (HL-60(TB) leukemia): > 100 µM | GI50 (HOP-62 NSCLC): 6.41 µM | TGI (HOP-62 NSCLC): 53.4 µM | GI50 (HOP-92 NSCLC): 19.9 µM | TGI (HOP-92 NSCLC): 74.1 µM | GI50 (HS 578T breast): > 100 µM | TGI (HS 578T breast): > 100 µM | GI50 (HT29 colon): > 100 µM | TGI (HT29 colon): > 100 µM | GI50 (IGROV1 ovarian): > 35 µM | TGI (IGROV1 ovarian): > 100 µM | GI50 (K-562 leukemia): 42.7 µM | TGI (K-562 leukemia): > 100 µM | GI50 (KM12 colon): > 100 µM | TGI (KM12 colon): > 100 µM | GI50 (LOX IMVI melanoma): > 88.3 µM | TGI (LOX IMVI melanoma): > 100 µM | GI50 (M14 melanoma): > 100 µM | TGI (M14 melanoma): > 100 µM | GI50 (MALME-3M melanoma): > 57.6 µM | TGI (MALME-3M melanoma): > 100 µM | GI50 (MCF7 breast): > 100 µM | TGI (MCF7 breast): > 100 µM | GI50 (MDA-MB-231 breast): 2.41 µM | TGI (MDA-MB-231 breast): 27.4 µM | GI50 (MDA-MB-435): > 100 µM | TGI (MDA-MB-435): > 100 µM | GI50 (MOLT-4 leukemia): 0.325 µM | TGI (MOLT-4 leukemia): 21.9 µM | GI50 (NCI-H226 lung): > 76.5 µM | TGI (NCI-H226 lung): > 100 µM | GI50 (NCI-H23 lung): 34.5 µM | TGI (NCI-H23 lung): > 83.8 µM | GI50 (NCI-H460 lung): > 68 µM | TGI (NCI-H460 lung): > 100 µM | GI50 (NCI-H522 lung): > 100 µM | TGI (NCI-H522 lung): > 100 µM | GI50 (NCI/ADR-RES ovarian): > 100 µM | TGI (NCI/ADR-RES ovarian): > 100 µM | GI50 (OVCAR-3 ovarian): > 100 µM | TGI (OVCAR-3 ovarian): > 100 µM | GI50 (OVCAR-4 ovarian): > 100 µM | TGI (OVCAR-4 ovarian): > 100 µM | GI50 (OVCAR-5 ovarian): > 100 µM | TGI (OVCAR-5 ovarian): > 100 µM | GI50 (OVCAR-8 ovarian): 15.6 µM | TGI (OVCAR-8 ovarian): > 100 µM | GI50 (PC-3 prostate): > 100 µM | TGI (PC-3 prostate): > 100 µM | GI50 (RPMI-8226 leukemia): > 52.2 µM | TGI (RPMI-8226 leukemia): > 100 µM | GI50 (RXF 393 renal): 46.2 µM | TGI (RXF 393 renal): > 100 µM | GI50 (SF-268 CNS): 25 µM | TGI (SF-268 CNS): > 100 µM | GI50 (SF-295 CNS): 12.6 µM | TGI (SF-295 CNS): > 86.1 µM | GI50 (SF-539 CNS): > 70.6 µM | TGI (SF-539 CNS): > 100 µM | GI50 (SK-MEL-2 melanoma): > 100 µM | TGI (SK-MEL-2 melanoma): > 100 µM | GI50 (SK-MEL-28 melanoma): > 100 µM | TGI (SK-MEL-28 melanoma): > 100 µM | GI50 (SK-MEL-5 melanoma): > 100 µM | TGI (SK-MEL-5 melanoma): > 100 µM | GI50 (SK-OV-3 ovarian): > 100 µM | TGI (SK-OV-3 ovarian): > 100 µM | GI50 (SN12C renal): > 39.2 µM | TGI (SN12C renal): > 92 µM | GI50 (SNB-19 CNS): 99.4 µM | TGI (SNB-19 CNS): > 100 µM | GI50 (SNB-75 CNS): > 47.7 µM | TGI (SNB-75 CNS): > 84 µM | GI50 (SR leukemia): 0.0809 µM | TGI (SR leukemia): 17.9 µM | GI50 (SW-620 colon): > 100 µM | TGI (SW-620 colon): > 100 µM | GI50 (T-47D breast): > 100 µM | TGI (T-47D breast): > 100 µM | GI50 (TK-10 renal): 22.7 µM | TGI (TK-10 renal): > 70.8 µM | GI50 (U251 CNS): 5.44 µM | TGI (U251 CNS): 18.7 µM | GI50 (UACC-257 melanoma): > 100 µM | TGI (UACC-257 melanoma): > 100 µM | GI50 (UACC-62 melanoma): > 100 µM | TGI (UACC-62 melanoma): > 100 µM | GI50 (UO-31 renal): > 45.7 µM | TGI (UO-31 renal): > 100 µM
